Measured values as given in patent US10421749B2, “Pyrone derivatives for use as antiviral agents” (priority 2015, dated 2019).
“Also recorded” adds a separate entry of the source.

Experiments:
[1] = tested on: HBV; assay: HBV replication in HepG2.2.15 cells (HBeAg, released viral particles, intracellular HBV DNA); type: cell-based; details: three days treatment, 1 μM to 1 nM
Method: Antiviral effect of Compound 1 on HBV replication. A) After a three days treatment of HepG2.2.15 cells with Compound 1 in a concentration range from 1 μM to 1 nM, the cell viability was unchanged compared to untreated control cells.
(§1) The human hepatoma cell line HepG2.2.15, stably expressing HBV particles, was seeded in a 48 well format at a density of 5×10^4 the day before starting the treatment. Next day the cells were treated with 1 μM, 100 nM, 10 nM and 1 nM of Compound 1 with 3 independent biological replicates each. The cells were cultured in differentiation medium containing 1.8% DMSO, to slow down cell growth and enhance viral replication. Three days after treatment, cell viability (FIG. 4A) was determined by cell titer blue assay, cell supernatants were analyzed for HBeAg and newly released viral particles (FIGS. 4B and C) and finally cells were harvested to analyze for intracellular HBV DNA (FIG. 4D).

[2] = tested on: HepG2.2.15 cells; assay: Cell viability of HepG2.2.15 cells by cell titer blue assay; type: cell-based, human; details: three days treatment, 1 μM to 1 nM, compared to untreated control cells; FIG. 4A
Method: as §1

[3] = tested on: HIV-1 expression in HNSCLatGFP1.1 cells; assay: Induced expression of latent HIV-1-gfp reporter virus in HNSCLatGFP1.1 cells (GFP, FACS); type: cell-based, human; details: induction with TNF; 0.5, 5, 50 nM compound; FIG. 3A
Method: A) Induction of expression of HIV-1 in HNSCLatGFP1.1 cells using TNF: 1: untreated (negative control); 2: TNF (positive control); 3: 0.5 nM Compound 1; 4: 5 nM Compound 1; 5: 50 nM Compound 1; 6: 0.5 nM Compound 1+TNF; 7: 5 nM Compound 1+TNF; 8: 50 nM Compound 1+TNF. B) Induction of expression of HIV-1 in HNSCLatGFP1.1 cells using TNF+SAHA: 1: mock; 2: TNF+SAHA; 3: 50 nM Compound 1; 4: TNF+SAHA+50 nM Compound 1. C) Induction of expression of HIV-1 in HNSCLatGFP1.1 cells using SAHA: 1: untreated (negative control); 2: SAHA (positive control); 3: 0.5 nM Compound 1; 4: 5 nM Compound 1; 5: 50 nM Compound 1; 6: 0.5 nM Compound 1+SAHA; 7: 5 nM Compound 1+SAHA; 8: 50 nM Compound 1+SAHA.
To further characterize the inhibitory effects of Compound 1, a further cell line (HNSCLatGFP1.1) was established into the genome of which the genome of a HIV-1-gfp reporter virus has been stably integrated.
Reference cultures were either untreated (minimum signal; lane 1 of FIG. 3A) or exposed to TNF (maximum signal; lane 2 of FIG. 3A). HNSCLatGFP1.1 cells were exposed to different concentrations of Compound 1 either alone (lanes 3 to 5 of FIG. 3A) or together with TNF (lanes 6 to 8 of FIG. 3A).

[4] = tested on: HIV-1; assay: microbe, parasite or virus in culture; details: Human immunodeficiency virus 1, 48 h, read-out: EC50 with respect to HIV replication
Method: (§2) LC5-RIC cells were seeded into 96-well plates (μCLEAR-Plate Black; Greiner Bio-One, Kremsmuenster, Germany), using only the 60 inner wells to avoid adverse effects caused by variations in the culture conditions in the outer wells. Cells were seeded at a density of 10^4 per well at 24 h prior to infection. Compounds were tested either at single concentrations or in serial dilutions, with each concentration assayed in triplicate. Compound solution (100 μl) followed by 20 μl of HIV inoculum (10^8 RNA copies/ml inoculum for KE37.1-derived HIV-1IIIB or 28.8 ng of p24 for HIV-1LAI derived from HEK 293T cells) was added to each well. To assay maximum infection (i.e., 100%), HIV inoculum was added to LC5-RIC cells incubated with compound-free medium. Controls for background expression consisted of LC5-RIC cells cultured in conditioned medium from KE37.1 (i.e., uninfected) cells. Plates were incubated for 48 h after virus addition, after which cultures were assayed for cellular reporter expression and for titers of infectious virus in supernatant fluids. Reporter expression was determined by measuring the total fluorescent signal intensity of each culture with a fluorescence microplate reader (Fluoroskan Ascent; ThermoFisher, Schwerte, Germany) at an excitation filter wavelength of 544 nm and an emission filter wavelength of 590 nm or with a Tecan infinite M200 (Tecan, Crailsheim, Germany) at the monochromator wavelengths 552 nm for excitation and 596 for emission. To quantify infectious virus titers, supernatant fluids (30 μl of HIV-1IIIB or 20 μl for HIV-1LAI) from cultures in the first plate were transferred to a second plate with uninfected LC5-RIC cells in exact replicate, and total fluorescent signal intensities of cultures in the second plate were measured 72 h after transfer.
(§3) Curve fits and EC50 calculations were done with Prism, version 4 (GraphPad Software, La Jolla, Calif.), using the equation for sigmoidal dose response with variable slope with the following set constraint parameters: fixed top of 100 and fixed bottom of 0. As internal acceptance criteria, R^2 values had to be ≥0.9.
(§4) To evaluate the inhibitory effects of the pyrone derivatives described herein, the EASY-HIT assay was used as disclosed in Kremp et al., supra. Briefly, a pyrone compound (or another test compound) was added to LC5-RIC cultures (or other uninfected cells, such as PBMCs) in microtiter plates, HIV preparations were added within 30 min of beginning treatment, and test cultures were incubated for 48 h after virus addition. Reference cultures were either exposed to the virus without test compound (maximum signal) or not exposed to the virus (minimum signal). Effects of test compounds on HIV infection of LC5-RIC cultures were determined in two steps. The first step quantified reporter expression by assaying fluorescent signal intensities of cells in test cultures. The second step quantified the infectious virus produced in test cultures by transferring aliquots of supernatants of test cultures to uninfected LC5-RIC cells (or other uninfected cells, such as PBMCs), followed by measurement of fluorescent signal intensities at 72 h after transfer. Cells evaluated for reporter expression were subjected to an MTT assay to detect deleterious effects of test compounds on cell viability under test conditions.
(§5) Briefly, the test compound) was added to LC5-RIC cultures in microtiter plates. HIV-1 virus preparations were added within 30 min of beginning treatment with the text compound and test cultures were incubated for 48 h after virus addition. Reference cultures were either exposed to the virus without test compound (maximum signal) or not exposed to the virus (minimum signal).

[5] = tested on: LC5-RIC cells; assay: MTT cell viability assay of LC5-RIC test cultures; type: cell-based; details: concentration range tested 0 to 120 μM; FIG. 1C
Source text: Effects of compounds on cell viability wasy measured by MTT assay, Cell Titre Blue Assay and Cell Tox Green Assay. The MTT assay and the Cell Titre Blue Assay evaluate metabolic activity of cells, The Cell Tox Green assay measures cell death (i.e. loss of cell membrane integrity). The MTT assay measures the reduction of the yellow MTT to purple formazan by mitochondrial enzymes (Mosmann, T., J. Immunol. Methods 65 (1983), 55-63) Immediately following measurement of reporter expression, cultures were incubated with 100 μl of MTT solution (0.5 mg of MTT; Sigma, Taufkirchen, Germany) in 100 μl of culture medium for 2 h under standard culture conditions. MTT solution was carefully removed, and cells were lysed by addition of 100 μl of lysis solution (10% [wt/vol] SDS and 0.6% [vol/vol] acetic acid in dimethyl sulfoxide [DMSO]). The released MTT formazan crystals were dissolved by gentle agitation, and MTT formazan concentrations were determined by an ELISA plate reader (SmartSpec Plus; Bio-Rad, Muenchen, Germany) or Tecan Infinite M200 at a test wavelength of 570 nm and a reference wavelength of 630 nm. Values for treated HIV-infected cultures were related to those of untreated, HIV-infected cultures in the same plate. […]

[6] = tested on: HIV; assay: Time-of-addition (TOA) assay in LC5-RIC cells; type: cell-based, HIV-1; details: FIG. 2
Method: TOA assays were performed in 96-well plates using a standard assay setup with some modifications. HIV-1IIIB virus preparations were added to LC5-RIC cultures at time point 0. Anti-HIV compounds were added to the cultures at different time points after addition of virus preparations. Inhibitor concentrations were ≥2× EC50 in each well. At least 15 different time points were evaluated for each compound in at least three wells per time point. Cultures were incubated with virus for 48 h and subsequently analyzed for cellular reporter gene expression and/or infectious virus titers in culture supernatants.
To further characterize the inhibitory effects of Compound 1, HIV preparations were added to LC5-RIC cells at the time point 0. Compound 1 was added to the cultures at different time points after virus addition (i.e., p.i.). Plates were incubated for a total period of 48 h after virus addition, and cultures were assayed for HIV reporter expression (step 1) or for amounts of infectious virus in culture supernatants (step 2). Fluorescent signal intensities of treated cultures were related to those of cultures infected without inhibitors (set at 100% infection).

[7] = tested on: HIV-1; details: LC5-RIC cells; for inhibition of the late phase of HIV-1 replication: step 2 (supernatant transfer, 72 h), FIG. 6, FIG. 7; for inhibition of HIV-1 replication: 48 h, steps 1 and 2, FIG. 5
Method: as §2, §3, §4, §5

Which IC50 ([1]; Hepatitis B virus, 72 h, n=3, read-out: IC50 of viral replication markers (HBeAg, released viral particles, intracellular HBV DNA)) does the source give for `COc1oc([C@H]2C/C(=C/C(C)=C/c3ccc([N+](=O)[O-])cc3)CO2)c(C)c(=O)c1C` [Compound 1] here?
Its IC50 is 2 to 20 nM.

What about the “viral replication markers (HBeAg, newly released viral particles, intracellular HBV DNA)” value ([1]; FIG. 4B-D) of the same compound?
The value was “strongly reduced in a dose dependent fashion”.

And the “cell viability of HepG2.2.15 cells” value [2]?
The value was “unchanged; also recorded: without affecting cell viability”.

What about the “inhibition of virus production in HNSCLatGFP1.1 cells” value [3] of the same compound?
The value was “able to inhibit virus production in HNSCLatGFP1.1 cells in a dose dependent manner”.

What about the EC50 [4] of the same compound?
Its EC50 is 0.6 nM.

And the “toxic effect (MTT cell viability)” value [5]?
Its value is “did not exhibit any toxic effect”.

What about the “time between infection and addition of compound at which HIV replication was still blocked” value ([6]; LC5-RIC cells, 48 h total incubation) of the same compound?
The value was 30 h.

What about the “stage of HIV replication inhibited (time-of-addition)” value ([6]; compound added at different time points after virus addition, 48 h total) of the same compound?
Its value is “inhibited the HIV replication at a very early stage”.

`COc1oc([C@H]2C/C(=C/C(C)=C/c3ccc(F)cc3F)CO2)c(C)c(=O)c1C` [Compound 21] was tested. Which “inhibition of the late phase of HIV-1 replication” value [7] did it give?
Its value is “highest activities”.

Which “inhibition of HIV-1 replication” value [7] does the source give for `COc1oc([C@H]2C/C(=C/C(C)=C/c3ccc(Cl)cc3)CO2)c(C)c(=O)c1C` [Compound 4] here?
The value was “inhibit HIV-1 replication”.

`COc1oc([C@H]2C/C(=C/C(C)=C/c3cccc(Cl)c3)CO2)c(C)c(=O)c1C` [Compound 19] was tested. Which “inhibition of HIV-1 replication” value [7] did it give?
Its value is “inhibit HIV-1 replication”.

How did the “inhibition of the late phase of HIV-1 replication” value [7] turn out when `COc1oc([C@H]2C/C(=C/C(C)=C/c3ccc(C(F)(F)F)cc3)CO2)c(C)c(=O)c1C` [Compound 22] was run?
Its value is “highest activities”.

How did the “inhibition of the late phase of HIV-1 replication” value [7] turn out when `COc1ccc(/C=C(C)/C=C2\CO[C@@H](c3oc(OC)c(C)c(=O)c3C)C2)cc1OC` [Compound 23] was run?
Its value is “lowest activity”.
